Data published in ChEMBL document CHEMBL1201862, “PubChem BioAssay data set” (2004).
The source made the active and inactive calls.

How the values were obtained:
[1] = system: Streptococcus sp. 'group A'; test: growth inhibition of control SK(-) GAS strain, dose response, counter-screen for streptokinase expression inhibitor project, luminescence, kanamycin, BacTiterGlo, confirmation (AID 1900); assay type: functional, organism-based
Streptokinase A = biological target: T1, Streptokinase A (Streptococcus pyogenes serotype M1, UniProt P10520); test: S. pyogenes streptokinase expression inhibitors, potency, dose response, plasminogen activation absorbance, OD405 (AID 1914); assay type: functional, Streptococcus pyogenes M1 GAS;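 further: secreted streptokinase activity via plasminogen activation per viability signal from cell pellet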
T1 sequence (P10520 whole entry): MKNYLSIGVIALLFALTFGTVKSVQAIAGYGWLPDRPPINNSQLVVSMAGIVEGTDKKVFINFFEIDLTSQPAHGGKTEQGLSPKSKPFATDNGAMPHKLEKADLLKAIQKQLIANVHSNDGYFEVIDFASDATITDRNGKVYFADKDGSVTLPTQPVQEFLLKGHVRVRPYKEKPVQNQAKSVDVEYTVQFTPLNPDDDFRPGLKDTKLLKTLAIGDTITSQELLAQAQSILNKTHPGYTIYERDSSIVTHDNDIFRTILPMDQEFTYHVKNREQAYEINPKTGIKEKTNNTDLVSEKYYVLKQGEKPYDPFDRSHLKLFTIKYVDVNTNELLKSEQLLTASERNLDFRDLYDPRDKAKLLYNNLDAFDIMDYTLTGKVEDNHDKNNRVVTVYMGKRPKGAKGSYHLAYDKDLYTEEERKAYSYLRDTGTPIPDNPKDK

Streptococcus = test: Group A Streptococcus viability loss, dose response, counter-screen for streptokinase expression inhibitor project, luminescence, BacTiterGlo (AID 1915); assay type: functional, organism-based;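 further: potency for reduction of bacterial viability or growth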
[2] = biological target: Disintegrin and metalloproteinase domain-containing protein 17 (Homo sapiens, UniProt P78536); test: ADAM17 protease inhibitors, dose response, counter-screen for ADAM10 exosite inhibitor project, biochemical, quenched FRET substrate (AID 743253)
Disintegrin and metalloproteinase domain-containing protein 17, sequence (P78536 whole entry, the tested form may be a part): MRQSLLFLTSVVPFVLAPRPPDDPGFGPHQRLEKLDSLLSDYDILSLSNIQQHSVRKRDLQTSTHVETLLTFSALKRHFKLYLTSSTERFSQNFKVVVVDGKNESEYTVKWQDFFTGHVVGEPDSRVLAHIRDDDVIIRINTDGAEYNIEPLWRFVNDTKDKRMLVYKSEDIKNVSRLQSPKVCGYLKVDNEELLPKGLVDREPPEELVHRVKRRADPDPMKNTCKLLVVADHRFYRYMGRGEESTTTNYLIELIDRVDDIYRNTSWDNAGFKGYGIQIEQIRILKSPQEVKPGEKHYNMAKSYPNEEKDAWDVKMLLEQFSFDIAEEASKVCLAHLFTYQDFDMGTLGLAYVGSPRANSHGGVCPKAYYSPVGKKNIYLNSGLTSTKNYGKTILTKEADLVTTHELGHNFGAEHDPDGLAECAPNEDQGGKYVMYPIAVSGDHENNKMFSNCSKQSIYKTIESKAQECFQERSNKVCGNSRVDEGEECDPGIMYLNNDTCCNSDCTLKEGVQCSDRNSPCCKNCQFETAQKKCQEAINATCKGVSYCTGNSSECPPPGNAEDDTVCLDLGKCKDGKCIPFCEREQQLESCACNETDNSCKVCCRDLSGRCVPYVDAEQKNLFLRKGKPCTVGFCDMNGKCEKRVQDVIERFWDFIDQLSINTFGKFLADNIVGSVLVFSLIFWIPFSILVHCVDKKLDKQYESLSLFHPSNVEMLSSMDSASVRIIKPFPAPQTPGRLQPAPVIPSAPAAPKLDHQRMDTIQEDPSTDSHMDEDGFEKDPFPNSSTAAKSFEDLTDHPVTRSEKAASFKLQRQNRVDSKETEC

Large T antigen = Large T antigen (Simian virus 40, UniProt P03070); assay type: functional, Betapolyomavirus macacae;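 further: Confirmatory-stage PubChem screen for compounds that inhibit SV40 T antigen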
Large T antigen, sequence (P03070 whole entry): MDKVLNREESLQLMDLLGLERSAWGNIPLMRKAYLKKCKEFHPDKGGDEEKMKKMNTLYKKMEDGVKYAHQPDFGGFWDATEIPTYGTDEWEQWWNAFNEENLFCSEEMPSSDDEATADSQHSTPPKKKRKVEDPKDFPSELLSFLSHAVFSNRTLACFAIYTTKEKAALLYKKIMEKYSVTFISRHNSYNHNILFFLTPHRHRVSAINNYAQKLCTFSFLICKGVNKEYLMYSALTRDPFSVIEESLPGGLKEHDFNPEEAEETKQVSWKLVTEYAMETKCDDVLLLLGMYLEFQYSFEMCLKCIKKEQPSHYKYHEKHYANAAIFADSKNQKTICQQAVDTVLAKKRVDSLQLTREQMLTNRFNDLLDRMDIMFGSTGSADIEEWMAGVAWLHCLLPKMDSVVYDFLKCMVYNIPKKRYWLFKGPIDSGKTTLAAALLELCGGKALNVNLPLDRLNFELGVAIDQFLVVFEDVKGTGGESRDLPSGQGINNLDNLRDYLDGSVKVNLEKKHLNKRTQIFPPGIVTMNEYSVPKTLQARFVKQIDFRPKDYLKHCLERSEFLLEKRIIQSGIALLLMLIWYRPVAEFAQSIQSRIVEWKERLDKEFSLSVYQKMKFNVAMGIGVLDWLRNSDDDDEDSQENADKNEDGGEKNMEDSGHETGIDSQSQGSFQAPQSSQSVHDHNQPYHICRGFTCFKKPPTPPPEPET

[3] = biological target: T2, High affinity choline transporter 1 (Homo sapiens, UniProt Q9GZV3); test: CHT inhibitors, dose response, cell-based, 5-point CRC, membrane potential dye (AID 504840); assay type: functional
T2 sequence (Q9GZV3 whole entry): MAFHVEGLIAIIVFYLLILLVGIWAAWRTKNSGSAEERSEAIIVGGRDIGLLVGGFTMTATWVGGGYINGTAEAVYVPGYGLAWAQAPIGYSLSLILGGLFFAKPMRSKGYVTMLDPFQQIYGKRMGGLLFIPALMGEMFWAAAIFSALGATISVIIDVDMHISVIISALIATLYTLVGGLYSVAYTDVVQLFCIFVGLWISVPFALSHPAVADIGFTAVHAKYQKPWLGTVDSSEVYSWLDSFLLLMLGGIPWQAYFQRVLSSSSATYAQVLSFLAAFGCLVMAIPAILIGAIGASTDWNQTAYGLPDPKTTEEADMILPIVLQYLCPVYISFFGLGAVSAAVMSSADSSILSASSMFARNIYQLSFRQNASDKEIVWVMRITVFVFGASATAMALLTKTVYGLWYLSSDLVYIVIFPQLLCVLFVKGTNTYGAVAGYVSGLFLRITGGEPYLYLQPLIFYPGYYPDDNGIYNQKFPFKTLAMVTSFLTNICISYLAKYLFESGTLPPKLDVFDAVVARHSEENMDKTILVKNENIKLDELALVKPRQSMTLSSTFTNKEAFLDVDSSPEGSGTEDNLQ

[4] = biological target: Endoplasmic reticulum aminopeptidase 1 (Homo sapiens, UniProt Q9NZ08); test: ERAP1 aminopeptidase inhibitors, dose response, biochemical, cherry-pick, set 2, plate reader (AID 743314)
Endoplasmic reticulum aminopeptidase 1, sequence (Q9NZ08 whole entry): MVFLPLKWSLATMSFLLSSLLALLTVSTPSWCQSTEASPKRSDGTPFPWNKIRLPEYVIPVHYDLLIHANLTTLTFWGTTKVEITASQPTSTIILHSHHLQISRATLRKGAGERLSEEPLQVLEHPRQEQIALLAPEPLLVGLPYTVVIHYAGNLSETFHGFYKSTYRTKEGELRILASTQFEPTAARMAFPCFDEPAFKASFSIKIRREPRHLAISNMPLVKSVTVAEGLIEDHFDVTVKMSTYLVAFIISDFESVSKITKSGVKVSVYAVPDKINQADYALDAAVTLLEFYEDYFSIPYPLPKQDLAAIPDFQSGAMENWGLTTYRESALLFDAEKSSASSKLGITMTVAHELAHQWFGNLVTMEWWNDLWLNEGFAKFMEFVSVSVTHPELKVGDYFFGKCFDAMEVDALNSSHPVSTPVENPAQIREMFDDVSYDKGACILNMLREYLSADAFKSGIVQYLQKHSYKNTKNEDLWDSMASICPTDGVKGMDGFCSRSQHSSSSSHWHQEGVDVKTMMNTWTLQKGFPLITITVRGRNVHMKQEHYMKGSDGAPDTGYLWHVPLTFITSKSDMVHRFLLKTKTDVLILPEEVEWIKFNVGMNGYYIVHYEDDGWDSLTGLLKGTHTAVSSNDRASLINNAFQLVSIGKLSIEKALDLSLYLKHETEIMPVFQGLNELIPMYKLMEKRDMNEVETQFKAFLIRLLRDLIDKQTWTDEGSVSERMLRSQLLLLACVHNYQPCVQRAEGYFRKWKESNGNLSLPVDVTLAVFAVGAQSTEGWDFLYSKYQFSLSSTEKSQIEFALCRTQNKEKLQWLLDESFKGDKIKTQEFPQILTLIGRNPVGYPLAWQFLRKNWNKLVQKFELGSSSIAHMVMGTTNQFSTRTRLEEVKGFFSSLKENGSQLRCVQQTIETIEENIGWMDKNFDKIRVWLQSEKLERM

HEK293 [5] = test: NOD1 signaling inhibitors, primary screen, cell-based, luminescence, uHTS (AID 1578); assay type: functional; conditions: Homo sapiens
HEK293 [6] = test: cells; assay type: functional, cell-based; conditions: Homo sapiens
HEK293 [7] = test: cells; assay type: functional, cell-based; conditions: Homo sapiens; remark: listed apart in the source
[8] = biological target: Nucleotide-binding oligomerization domain-containing protein 2 (Homo sapiens, UniProt Q9HC29); test: NOD2 signaling inhibitors, cell-based, luminescence, uHTS, HEK293 (AID 1566); assay type: functional
Nucleotide-binding oligomerization domain-containing protein 2, sequence (Q9HC29 whole entry, the tested form may be a part): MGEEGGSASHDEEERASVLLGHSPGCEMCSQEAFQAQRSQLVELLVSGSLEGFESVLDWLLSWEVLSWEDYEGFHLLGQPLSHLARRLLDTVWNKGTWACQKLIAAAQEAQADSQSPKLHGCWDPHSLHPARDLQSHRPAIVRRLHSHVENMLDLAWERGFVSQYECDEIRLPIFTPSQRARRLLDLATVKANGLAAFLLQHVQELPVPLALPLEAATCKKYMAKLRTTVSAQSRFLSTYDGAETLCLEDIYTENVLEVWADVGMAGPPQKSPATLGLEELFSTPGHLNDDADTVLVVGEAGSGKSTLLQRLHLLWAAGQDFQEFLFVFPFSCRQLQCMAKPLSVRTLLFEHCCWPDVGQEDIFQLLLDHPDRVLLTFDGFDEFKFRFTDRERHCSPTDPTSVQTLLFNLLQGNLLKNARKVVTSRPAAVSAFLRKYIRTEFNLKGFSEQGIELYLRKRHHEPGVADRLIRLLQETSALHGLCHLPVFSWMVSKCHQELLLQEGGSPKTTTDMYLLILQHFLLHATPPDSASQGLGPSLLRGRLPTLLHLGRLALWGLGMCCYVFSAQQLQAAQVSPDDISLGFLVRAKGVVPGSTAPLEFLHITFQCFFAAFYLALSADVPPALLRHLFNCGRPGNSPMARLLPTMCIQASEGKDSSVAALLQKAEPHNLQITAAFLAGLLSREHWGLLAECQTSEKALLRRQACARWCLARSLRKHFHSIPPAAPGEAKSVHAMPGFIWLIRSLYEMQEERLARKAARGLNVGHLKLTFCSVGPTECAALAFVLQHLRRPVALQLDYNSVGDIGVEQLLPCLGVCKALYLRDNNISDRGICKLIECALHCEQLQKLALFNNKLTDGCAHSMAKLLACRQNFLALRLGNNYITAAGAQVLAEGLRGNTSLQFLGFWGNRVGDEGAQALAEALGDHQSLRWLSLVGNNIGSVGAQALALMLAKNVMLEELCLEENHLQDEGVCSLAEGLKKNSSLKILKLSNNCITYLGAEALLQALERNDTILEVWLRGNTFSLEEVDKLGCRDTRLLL

HEK293 [9] = test: NOD2 signaling inhibitors in MDP-stimulated cells, cell-based, uHTS, luminescence (AID 2001); assay type: functional; conditions: Homo sapiens
HEK293 [10] = test: cells; assay type: functional, cell-based; conditions: Homo sapiens; remark: listed apart in the source
[11] = microbe, parasite or virus in culture; assay type: functional; conditions: Mycobacterium tuberculosis
[12] = biological target: T3, Sentrin-specific protease 7 (Homo sapiens, UniProt Q9BQF6); assay type: functional;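 further: Luminescence-based dose-response confirmation of ultra-high-throughput screening hits, measuring inhibition of SENP7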
T3 sequence (Q9BQF6 whole entry): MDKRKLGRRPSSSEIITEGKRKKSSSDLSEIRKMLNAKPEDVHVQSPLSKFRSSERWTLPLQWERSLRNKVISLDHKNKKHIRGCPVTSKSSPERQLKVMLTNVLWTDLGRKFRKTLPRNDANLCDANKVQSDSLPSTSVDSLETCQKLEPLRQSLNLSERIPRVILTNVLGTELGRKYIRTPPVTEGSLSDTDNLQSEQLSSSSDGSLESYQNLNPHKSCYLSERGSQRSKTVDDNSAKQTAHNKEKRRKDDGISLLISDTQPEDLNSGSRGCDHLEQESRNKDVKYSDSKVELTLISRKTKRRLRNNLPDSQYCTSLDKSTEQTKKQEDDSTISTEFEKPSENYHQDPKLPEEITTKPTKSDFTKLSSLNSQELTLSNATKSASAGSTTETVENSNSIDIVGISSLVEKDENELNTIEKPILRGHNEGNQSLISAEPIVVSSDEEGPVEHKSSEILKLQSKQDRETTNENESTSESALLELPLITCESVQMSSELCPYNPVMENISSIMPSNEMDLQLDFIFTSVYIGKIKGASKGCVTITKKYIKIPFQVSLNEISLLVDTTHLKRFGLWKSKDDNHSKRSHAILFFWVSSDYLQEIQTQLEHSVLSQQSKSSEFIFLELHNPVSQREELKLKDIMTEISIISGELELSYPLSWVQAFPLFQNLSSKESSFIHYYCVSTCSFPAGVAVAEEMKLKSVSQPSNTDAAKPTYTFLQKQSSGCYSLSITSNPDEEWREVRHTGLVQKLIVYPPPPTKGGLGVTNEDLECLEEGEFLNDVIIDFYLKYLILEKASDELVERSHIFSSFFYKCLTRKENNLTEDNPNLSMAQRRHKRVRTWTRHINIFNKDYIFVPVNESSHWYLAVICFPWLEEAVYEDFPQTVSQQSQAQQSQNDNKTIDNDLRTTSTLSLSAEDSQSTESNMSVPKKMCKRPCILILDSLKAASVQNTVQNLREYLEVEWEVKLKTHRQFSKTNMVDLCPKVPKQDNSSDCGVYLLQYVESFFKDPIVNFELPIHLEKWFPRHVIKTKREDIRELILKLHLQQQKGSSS

[13] = biological target: T4, Sentrin-specific protease 6 (Homo sapiens, UniProt Q9GZR1); assay type: functional;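 further: Luminescence-based dose-response confirmatory assay of SENP6 inhibition, following up an ultra-high-throughput screen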
T4 sequence (Q9GZR1 whole entry): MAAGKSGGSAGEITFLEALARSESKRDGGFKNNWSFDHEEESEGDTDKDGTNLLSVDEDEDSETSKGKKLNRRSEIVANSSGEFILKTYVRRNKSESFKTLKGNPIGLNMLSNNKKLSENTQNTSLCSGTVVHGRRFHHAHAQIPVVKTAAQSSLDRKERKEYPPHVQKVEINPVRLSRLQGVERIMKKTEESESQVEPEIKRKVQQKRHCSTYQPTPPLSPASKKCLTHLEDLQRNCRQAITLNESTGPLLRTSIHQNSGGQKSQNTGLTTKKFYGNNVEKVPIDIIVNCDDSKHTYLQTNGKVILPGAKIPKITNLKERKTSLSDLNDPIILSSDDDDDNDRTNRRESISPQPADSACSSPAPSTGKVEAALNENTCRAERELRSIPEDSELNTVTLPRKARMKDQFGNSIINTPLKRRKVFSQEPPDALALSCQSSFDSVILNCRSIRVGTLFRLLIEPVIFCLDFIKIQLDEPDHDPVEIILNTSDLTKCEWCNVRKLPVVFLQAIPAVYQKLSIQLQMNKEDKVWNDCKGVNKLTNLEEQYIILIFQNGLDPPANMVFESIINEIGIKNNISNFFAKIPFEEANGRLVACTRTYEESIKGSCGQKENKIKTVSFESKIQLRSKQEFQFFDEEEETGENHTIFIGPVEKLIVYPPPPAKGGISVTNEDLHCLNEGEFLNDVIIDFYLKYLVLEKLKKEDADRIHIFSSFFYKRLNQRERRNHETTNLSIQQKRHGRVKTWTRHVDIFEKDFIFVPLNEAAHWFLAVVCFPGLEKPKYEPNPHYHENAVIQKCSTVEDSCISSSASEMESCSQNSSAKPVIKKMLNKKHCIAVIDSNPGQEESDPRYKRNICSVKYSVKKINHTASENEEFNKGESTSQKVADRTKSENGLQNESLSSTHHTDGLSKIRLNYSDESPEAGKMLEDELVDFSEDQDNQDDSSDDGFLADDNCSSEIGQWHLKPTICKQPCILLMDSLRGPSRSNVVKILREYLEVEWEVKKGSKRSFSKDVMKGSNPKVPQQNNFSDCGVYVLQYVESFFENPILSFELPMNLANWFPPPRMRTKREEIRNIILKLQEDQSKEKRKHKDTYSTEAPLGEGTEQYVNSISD

[14] = biological target: T5, Sentrin-specific protease 8 (Homo sapiens, UniProt Q96LD8); assay type: functional;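 further: luminescence read-out of SENP8 inhibition, dose-response confirmation following an ultra-high-throughput screen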
T5 sequence (Q96LD8 whole entry): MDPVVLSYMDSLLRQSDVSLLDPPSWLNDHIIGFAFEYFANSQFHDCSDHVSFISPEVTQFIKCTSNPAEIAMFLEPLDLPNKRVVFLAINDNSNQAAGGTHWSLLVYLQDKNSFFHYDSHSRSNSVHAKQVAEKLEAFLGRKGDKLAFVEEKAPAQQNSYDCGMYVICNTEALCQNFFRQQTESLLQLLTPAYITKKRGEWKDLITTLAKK

[15] = HepG2 cell cytotoxicity, dose response, cytotoxicity control, ATP luminescence, cherry-pick, activator set 2 (AID 1053143); assay type: functional, cell-based
[16] = inhibitors of fibronectin matrix deposition, dose response, AH1F cells, Alexa488-FN fluorescence, cherry-picks (AID 1035475); assay type: functional, cell-based
[17] = Late stage assay provider results from the probe development effort to identify selective inhibitors of heat shock protein 90 (HSP90): Absorbance-based cell proliferation assay in SKBR3 cells.; assay type: functional; conditions: SK-BR-3
[18] = Late stage assay provider results from the probe development effort to identify selective inhibitors of heat shock protein 90 (HSP90): Absorbance-based cell proliferation assay in MCF7 cells.; assay type: functional

CCCN(CC(=O)Nc1cc(Cl)cc(Cl)c1)CC(=O)Nc1ccc(F)c(F)c1F
active: EC50 [1] 1.77 µM | EC50 (Streptokinase A) 1.48 µM | EC50 (Streptococcus) 10.4 µM
inactive: IC50 [2] > 69.5 µM

CSC1=NS(=O)(=O)c2c(C)nn(C)c2S1
active: IC50 (Large T antigen) 32.8 µM | IC50 [3] 10.7 µM | AC50 [4] 18.7 µM

CCOc1cccc(/C=C/c2ccc3cccc(O)c3n2)c1O
inactive: EC50 (HEK293 [5]) > 20 µM | IC50 (HEK293 [7]) > 20 µM | EC50 [8] > 20 µM | IC50 (HEK293 [9]) 3.71 µM | IC50 (HEK293 [10]) > 20 µM | IC50 [14] > 100 µM
active: IC50 (HEK293 [6]) 11.5 µM | CC50 [11] 35.7 µM | IC50 [12] 4.32 µM | IC50 [13] 7.66 µM | AC50 [15] 26 µM

C[C@@H]1CN([C@H](C)CO)C(=O)c2cccc(NC(=O)Nc3ccc(C(F)(F)F)cc3)c2O[C@H]1CN(C)C(=O)Nc1cccc2ccccc12
active: AC50 [16] 57.7 µM

O=C(O)CCCCOc1ccc2cc(Br)c(=O)oc2c1
inactive: IC50 [17] > 100 µM | IC50 [18] > 100 µM
